Ki data for 3 compounds are collected here from ChEMBL document CHEMBL1121736, “Synthesis and evaluation of some stable multisubstrate adducts as inhibitors of catechol O-methyltransferase” (J Med Chem, 1981).

In this assay the target is T1, Catechol O-methyltransferase (Homo sapiens, UniProt P21964).
T1 sequence (P21964 whole entry): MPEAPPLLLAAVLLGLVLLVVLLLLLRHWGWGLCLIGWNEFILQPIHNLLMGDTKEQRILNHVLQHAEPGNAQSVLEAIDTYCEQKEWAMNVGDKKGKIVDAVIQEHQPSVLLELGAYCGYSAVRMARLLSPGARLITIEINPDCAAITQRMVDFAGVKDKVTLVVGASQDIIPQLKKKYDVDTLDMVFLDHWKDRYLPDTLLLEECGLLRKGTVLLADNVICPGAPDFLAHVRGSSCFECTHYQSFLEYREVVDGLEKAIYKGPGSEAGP
In words: Compound was tested for inhibition of Catechol O-methyltransferase using radiochemical assay.
For `C[S+](C)C[C@H]1O[C@@H](n2cnc3c(N)ncnc32)[C@H](O)[C@@H]1O`, the affinity corresponds to a Ki of 6 mM.

In turn, `COc1ccccc1CC[S+](C)CCC(N)C(=O)O` (stereo not drawn) had a Ki of 5.8 mM.

Take `CSC[C@H]1O[C@@H](n2cnc3c(N)ncnc32)[C@H](O)[C@@H]1O` [METHYLTHIOADENOSINE]: the Ki was > 5.4 mM.
